Source: article PMC12627933, “A First-In-Human Study of the SUMOylation Inhibitor Subasumstat in Patients with Advanced/Metastatic Solid Tumors or Relapsed/Refractory Hematologic Malignancies” (Cancer Research Communications, 2025)

Experiment: Safety: treatment-emergent adverse events (NCI CTCAE v5.0; CRS per ASTCT), phase I/II study NCT03648372
Type: in vivo
Conditions: Phase I (n = 84)
Method: This study comprised two parts: a phase I dose escalation and a phase II dose expansion (Fig. 1). In the dose-escalation phase, patients were enrolled to receive subasumstat intravenously as a 1-hour (±10 minutes) infusion on days 1, 4, 8, and 11 of a 21-day cycle (biweekly schedule). […] Dose escalation was based on cohort with an adaptive design using Bayesian logistic regression modeling with overdose control. The starting dose of subasumstat was based on Good Laboratory Practice animal toxicity studies and supported by the estimation of a minimum anticipated biologically effective level. A detailed description of dose-limiting toxicities (DLT) is presented in the Supplementary Methods.
The phase II dose-expansion portion enrolled patients to receive the recommended phase II dose (RP2D) determined in phase I, with each cohort assessed separately using an adaptive two-stage design for a single proportion (see Supplementary Methods). For stage 1, each cohort was analyzed when a prespecified number of patients were enrolled and had the potential to have at least one posttreatment scan [i.e., after the first disease assessment, 2 months from cycle 1 day 1 (C1D1)]. If the prespecified minimal response rate was not achieved in the first stage for a given cohort, that cohort would be closed to enrollment. […] The final analysis of the primary endpoints for each cohort would take place when all ongoing patients had the opportunity to complete the 6-month disease assessment. Across both phases, patients received subasumstat for up to 1 year or until confirmed disease progression, unacceptable toxicity, if any withdrawal criterion from the study was met, or if discontinuation of subasumstat occurred.
The occurrence of DLTs was assessed during cycle 1 (DLTs are described in the Supplementary Methods). Treatment-emergent adverse events (TEAE) were graded according to NCI Common Terminology Criteria for Adverse Events version 5.0, except for cytokine release syndrome (CRS), which was graded according to the American Society for Transplantation and Cellular Therapy Consensus Grading for CRS ([20]).
It was anticipated that approximately 70 DLT-evaluable patients would be enrolled for dose escalation. The safety analysis set included all patients who received at least one dose, even if incomplete, of subasumstat. […] The overall response rate (ORR) was defined as the proportion of patients who achieved complete response and partial response (PR) during the study. The disease control rate (DCR) was defined as the proportion of patients who achieved […] as per RECIST v1.1 for solid tumors or Lugano classification for lymphomas. […] Progression-free survival was summarized descriptively using the Kaplan–Meier method.

## Cc1sc(C(=O)c2cncnc2N[C@@H]2C[C@H](COS(N)(=O)=O)[C@@H](O)C2)cc1[C@@H]1NCCc2ccc(Cl)cc21 [subasumstat]
  AESI (adverse event of special interest): 9 (10.7) n (%)
  AESI related to subasumstat: 9 (10.7) n (%)
  AESI: CRS: 9 (10.7) n (%)
  Grade ≥3 TEAE: Abdominal pain: 4 (4.8) n (%)
  Grade ≥3 TEAE: Acute kidney injury: 2 (2.4) n (%)
  Grade ≥3 TEAE: Anemia: 9 (10.7) n (%)
  Grade ≥3 TEAE: Aspartate aminotransferase increased: 2 (2.4) n (%)
  Grade ≥3 TEAE: Blood bilirubin increased: 2 (2.4) n (%)
  Grade ≥3 TEAE: Dyspnea: 4 (4.8) n (%)
  Grade ≥3 TEAE: Fatigue: 5 (6.0) n (%)
  Grade ≥3 TEAE: Hyperbilirubinemia: 0 n (%)
  Grade ≥3 TEAE: Hypertension: 1 (1.2) n (%)
  Grade ≥3 TEAE: Hypokalemia: 7 (8.3) n (%)
  Grade ≥3 TEAE: Hypomagnesemia: 2 (2.4) n (%)
  Grade ≥3 TEAE: Hypophosphatemia: 2 (2.4) n (%)
  Grade ≥3 TEAE: Lymphocyte count decreased: 5 (6.0) n (%)
  Grade ≥3 TEAE: Lymphopenia: 1 (1.2) n (%)
  Grade ≥3 TEAE: Muscular weakness: 0 n (%)
  Grade ≥3 TEAE: Nausea: 2 (2.4) n (%)
  Grade ≥3 TEAE: Neutropenia: 0 n (%)
  Grade ≥3 TEAE: Platelet count increased: 1 (1.2) n (%)
  Grade ≥3 TEAE: Pleural effusion: 2 (2.4) n (%)
  Grade ≥3 TEAE: Pneumonia: 1 (1.2) n (%)
  Grade ≥3 TEAE: Pneumonitis: 2 (2.4) n (%)
  Grade ≥3 TEAE: Pyrexia: 2 (2.4) n (%)
  Grade ≥3 TEAE: Small intestinal obstruction: 4 (4.8) n (%)
  Grade ≥3 TEAE: Thrombocytopenia: 1 (1.2) n (%)
  Grade ≥3 TEAE: Vomiting: 4 (4.8) n (%)
  Grade ≥3 TEAEs: 48 (57.1) n (%)
  Grade ≥3 TEAEs related to subasumstat: 18 (21.4) n (%)
  Grade ≥3 subasumstat-related TEAE: Anemia: 1 (1.2) n (%)
  Grade ≥3 subasumstat-related TEAE: Aspartate aminotransferase increased: 2 (2.4) n (%)
  Grade ≥3 subasumstat-related TEAE: Hypokalemia: 2 (2.4) n (%)
  Grade ≥3 subasumstat-related TEAE: Lymphocyte count decreased: 4 (4.8) n (%)
  Grade ≥3 subasumstat-related TEAE: Muscular weakness: 0 n (%)
  Grade ≥3 subasumstat-related TEAE: Neutropenia: 0 n (%)
  Grade ≥3 subasumstat-related TEAE: Platelet count increased: 1 (1.2) n (%)
  Grade ≥3 subasumstat-related TEAE: Pneumonitis: 2 (2.4) n (%)
  Grade ≥3 subasumstat-related TEAE: Thrombocytopenia: 1 (1.2) n (%)
  On-study deaths: 10 (11.9) n (%)
  Patients with at least one grade ≥3 TEAE: 48 (57.1) n (%)
  Patients with at least one grade ≥3 subasumstat-related TEAE: 18 (21.4) n (%)
  Serious adverse events: 37 (44.0) n (%)
  Serious adverse events related to subasumstat: 7 (8.3) n (%)
  Subasumstat-related TEAE: Anemia: 4 (4.8) n (%)
  Subasumstat-related TEAE: CRS: 9 (10.7) n (%)
  Subasumstat-related TEAE: Chills: 17 (20.2) n (%)
  Subasumstat-related TEAE: Decreased appetite: 10 (11.9) n (%)
  Subasumstat-related TEAE: Diarrhea: 15 (17.9) n (%)
  Subasumstat-related TEAE: Dyspnea: 4 (4.8) n (%)
  Subasumstat-related TEAE: Fatigue: 27 (32.1) n (%)
  Subasumstat-related TEAE: Headache: 21 (25.0) n (%)
  Subasumstat-related TEAE: Hypokalemia: 7 (8.3) n (%)
  Subasumstat-related TEAE: IRR: 5 (6.0) n (%)
  Subasumstat-related TEAE: Myalgia: 6 (7.1) n (%)
  Subasumstat-related TEAE: Nausea: 29 (34.5) n (%)
  Subasumstat-related TEAE: Pyrexia: 23 (27.4) n (%)
  Subasumstat-related TEAE: Vomiting: 13 (15.5) n (%)
  TEAE: Abdominal distension: 11 (13.1) n (%)
  TEAE: Abdominal pain: 17 (20.2) n (%)
  TEAE: Anemia: 12 (14.3) n (%)
  TEAE: Arthralgia: 12 (14.3) n (%)
  TEAE: Back pain: 12 (14.3) n (%)
  TEAE: CRS: 9 (10.7) n (%)
  TEAE: Chills: 20 (23.8) n (%)
  TEAE: Constipation: 14 (16.7) n (%)
  TEAE: Decreased appetite: 26 (31.0) n (%)
  TEAE: Dehydration: 10 (11.9) n (%)
  TEAE: Diarrhea: 29 (34.5) n (%)
